Patent US20180200331A1, “BST-2 AS A THERAPEUTIC TARGET AND DIAGNOSTIC MARKER FOR BREAST CANCER GROWTH AND METASTASIS” (University of Iowa Research Foundation, priority 2015, published 2018)

Tests used:
4T1 cells [1] = assay: Tail vein injection of 4T1 cells, lung metastasis; type: in vivo, BALB/c mice
Experimental: Metastatic tumors were generated by implanting 300,000 4T1 shControl, sh413 or sh413 WT cells in 100 μl of PBS via tail vein in five-week-old female mice. Prior to imaging, mice were anesthetized, weighed and injected intraperitoneally with D-luciferin. Mice were imaged using the Xenogen IVIS three-dimensional optical imaging system (Caliper Life Sciences). Moreover, lung metastatic tumors were imaged post-mortem and counted grossly. Moreover, spleens from shControl, sh413, or sh413 WT injected mice were isolated and weighted. Average splenic weight was calculated from 3 different mice and plotted in a bar graph. Finally, Kaplan-Meier survival plots were generated and analyzed using the Gehan-Breslow-Wilcoxon test (GraphPrism) (FIG. 44).
Protein from lungs of mice injected with 4T1 shControl, sh413, or sh413 WT cells via tail vein was isolated to perform western blots blotting for total levels of BIM, levels of activated Caspase-3 (Cleaved Caspase-3) and GAPDH. Bands from 3 different western blots were normalized to GAPDH, quantified, averaged and depicted as bar graphs (FIG. 45).

BST-2 = assay: shRNA knockdown of BST-2 in E0771 and 4T1 cells; type: cell-based, mouse; details: E0771 and 4T1 cells stably transduced
From the text: E0771 and 4T1 cells were stably transduced with a construct expressing LV-CMV-firefly luciferase or an empty vector construct using lipofectamine following the manufacturer's instructions (Life Technologies, Carlsbad, Calif., USA). Stable transfectants were then transduced with lentiviral particles carrying BST-2-targeting sh137: CCGGC […] (SEQ ID NO:3); sh413: […] TTCTCAAGCTTTTTG (SEQ ID NO:4); or a non-targeting shControl: […] (SEQ ID NO:5) using a previously described protocol. Stable cells were generated by selection with the appropriate drug. The short hairpin RNA (shRNA) constructs were purchased from Sigma-Aldrich (St Louis, Mo., USA) (SHCLND-NM_198095) and lentiviral particles were generated at the Gene Transfer Vector Core at the University of Iowa.
Cell monolayers were washed with PBS and treated with Versene (Life Technologies). […] Stained cells were quantified using a FACSCalibur flow cytometer (BD Biosciences, San Jose, Calif., USA). […] Fluorescence-activated cell sorting (FACS) data were analyzed by Flowjo software (TreeStar, Ashland, Oreg., USA). […]
Western blots were performed as previously described. […] Band detection and quantification were carried out with the Odyssey Infrared Imaging System (LI-COR Biosciences, Lincoln, Nebr., USA).

E0771 cells = assay: MEF adhesion assay; type: cell-based, mouse; details: luciferase bioluminescence and PKH67Green
Experimental: Murine embryonic fibroblasts (MEFs) were grown to confluency in 6-well plates. Equivalent numbers (150,000) of cancer cells labeled with PKH67Green fluorescent cell linker, following the manufacturer's instructions (Sigma-Aldrich), were added to the MEF monolayer and allowed to incubate for 8 hours. Non-adhered cells were washed off and adhered cells imaged. Image J (NIH, Bethesda, Md., USA) was used to quantify the number of PKH67Greenpositive cells. In parallel, luciferase-expressing cancer cells were added to MEFs monolayers in 6-well plates for 8 hours. Non-adhered cells were washed off and adhered cells were treated with D-luciferin and imaged using IVIS. For luciferase assay, cancer cells plated in 96-well plate were used for quantitation of luciferase bioluminescence.

4T1 cells [2] = assay: Anoikis assay (Poly-HEMA); type: cell-based, mouse; details: 48 hours
Experimental: 96-well plates were coated with 50 ul of sterile 95% Ethanol or 50 ul of 12 mg/ml Poly-HEMA in 95% Ethanol (Sigma-Aldrich) and allowed to dry for 72 hours under the hood as previously described. (See Phung et al. (2011) Rapid generation of in vitro multicellular spheroids for the study of monoclonal antibody therapy. J Cancer 2: 507-514). Poly-HEMA prevents cells from attaching to the plastic. Following, 4T1 shControl, sh413, sh413 WT, or sh413 C3A cells were plated at 20,000 cells/well. Plates were centrifuged at 1,200 g for 10 minutes and then incubated at 37° C. for 48 hours. Cells were collected to test cell viability using trypan blue (Life technologies) and an MTT assay (Life technologies). The rest of the cells were pelleted and kept at −20° C. until used for RNA and protein isolation.

4T1 cells [3] = assay: MTT assay, 4T1; type: cell-based, mouse
Experimental: A total of 5,000 cells stably expressing sh137, sh413, or shControl were plated in 96-well plates. Cells were then incubated with 5 mg/ml MTT reagent for 3.5 hours followed by addition of MTT solvent (0.1% NP-40 and 4 mM HCl in isopropanol) and rocking for 15 minutes. Absorbance at 590 nm was read using a Tecan Infinite M200 Pro plate reader.

“sh413: BST-2-targeting shRNA (SEQ ID NO:4), delivered by lentiviral particles (CCGGGCTTGAGAATGAAGTCACGAACTCGAGTTCGTGACTTCATTCTCAAGCTTTTTG)” was tested, and the “levels of pro-apoptotic factors (BIM, Caspase-3) in the lungs” value (4T1 cells [1]; tail vein injected mice) was “elevates levels of pro-apoptotic factors”, the lung metastasis (4T1 cells [1]; tail vein, 42 days) was “decreases lung metastasis in vivo” and the BST-2 expression (BST-2) was “more efficiently suppressed BST-2”. For the same substance, the “cancer cell adhesion to MEF” value (E0771 cells) was “decreased the ability of cancer cells to adhere to supporting cells”, the susceptibility to anoikis (4T1 cells [2]) was “renders cells susceptible to anoikis” and the “cell viability (MTT)” value (4T1 cells [3]) was “increased cell viability”.
